In ChEMBL document CHEMBL1201862, “PubChem BioAssay data set” (2004):
Calls of active or inactive are those of the source.

Experiments:
[1] = biological target: T1, Sentrin-specific protease 8 (Homo sapiens, UniProt Q96LD8); test: inhibition of sentrin protease 8 – biochemical, luminescence, set 2, SAR follow-up (AID 588601); type: functional
T1 sequence (Q96LD8 whole entry): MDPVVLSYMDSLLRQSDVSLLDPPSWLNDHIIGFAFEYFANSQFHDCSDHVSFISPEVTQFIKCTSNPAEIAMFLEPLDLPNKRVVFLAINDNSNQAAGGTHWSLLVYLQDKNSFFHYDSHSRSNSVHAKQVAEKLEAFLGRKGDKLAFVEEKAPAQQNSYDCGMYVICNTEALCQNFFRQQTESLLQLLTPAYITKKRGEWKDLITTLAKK

HEK293 = test: cells; type: functional, cell-based; conditions: Homo sapiens
[2] = biological target: T2, Oxysterols receptor LXR-beta (Homo sapiens, UniProt P55055); test: LXR agonists, Gal4 luciferase reporter, dose response, counter-screen for ssDAF-12 agonist project, cell-based, luminescence, HEK293, S. stercoralis campaign (AID 720737); type: functional; conditions: read-out: IC50 (the source's name)
T2 sequence (P55055 whole entry): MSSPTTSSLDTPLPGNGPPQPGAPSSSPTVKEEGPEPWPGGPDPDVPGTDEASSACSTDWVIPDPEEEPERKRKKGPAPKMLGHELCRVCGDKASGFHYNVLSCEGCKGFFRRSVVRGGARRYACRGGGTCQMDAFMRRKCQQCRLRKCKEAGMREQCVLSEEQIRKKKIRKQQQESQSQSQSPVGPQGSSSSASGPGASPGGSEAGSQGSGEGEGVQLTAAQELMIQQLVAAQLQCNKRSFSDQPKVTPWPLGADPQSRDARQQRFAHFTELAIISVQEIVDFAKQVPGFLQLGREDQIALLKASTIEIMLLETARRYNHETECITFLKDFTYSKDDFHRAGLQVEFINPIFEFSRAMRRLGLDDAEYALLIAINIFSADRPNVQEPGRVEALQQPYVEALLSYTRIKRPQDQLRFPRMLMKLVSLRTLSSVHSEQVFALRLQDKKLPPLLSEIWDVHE

[3] = biological target: T1, Sentrin-specific protease 8; test: inhibition of human SENP8 cleavage activity – biochemical, luminescence, SAR follow-up (AID 504501); type: functional
[4] = biological target: Polyadenylate-binding protein 1 (Homo sapiens, UniProt P11940); test: MLLE binding blockers, Cy5 peptide tracer – biochemical, fluorescence polarization, Cy5-PAM2 peptide, secondary, miRNA deadenylation inhibitor project, dose response (AID 602260); type: functional; conditions: read-out: IC50_Mean
Polyadenylate-binding protein 1, sequence (P11940 whole entry): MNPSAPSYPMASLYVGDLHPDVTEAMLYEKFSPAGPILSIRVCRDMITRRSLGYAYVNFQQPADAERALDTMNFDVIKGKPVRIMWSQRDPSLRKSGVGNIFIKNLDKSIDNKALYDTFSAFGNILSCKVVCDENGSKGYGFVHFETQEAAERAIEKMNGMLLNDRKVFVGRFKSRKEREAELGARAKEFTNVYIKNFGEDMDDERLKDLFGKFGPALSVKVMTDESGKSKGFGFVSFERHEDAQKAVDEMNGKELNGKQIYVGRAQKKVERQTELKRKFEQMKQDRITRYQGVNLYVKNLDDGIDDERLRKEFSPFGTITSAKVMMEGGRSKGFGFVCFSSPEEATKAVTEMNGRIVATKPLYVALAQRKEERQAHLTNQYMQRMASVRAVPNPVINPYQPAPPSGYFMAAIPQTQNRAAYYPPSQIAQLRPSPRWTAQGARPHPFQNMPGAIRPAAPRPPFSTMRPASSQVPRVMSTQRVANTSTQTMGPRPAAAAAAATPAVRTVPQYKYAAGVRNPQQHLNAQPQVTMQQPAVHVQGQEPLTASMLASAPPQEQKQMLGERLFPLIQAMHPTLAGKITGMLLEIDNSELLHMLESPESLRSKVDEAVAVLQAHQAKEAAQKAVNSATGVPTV

Vero = test: viability of Vero cells under compound – cytotoxicity control for flavivirus capping enzyme inhibitors (AID 588742); type: functional; conditions: Chlorocebus sabaeus
[5] = biological target: Glucose-6-phosphate 1-dehydrogenase (Homo sapiens, UniProt P11413); test: inhibition of Homo sapiens G6PD, dose series – biochemical, fluorescence, selectivity assay for P. falciparum G6PD inhibitor project, dose response (AID 504792); type: functional
Glucose-6-phosphate 1-dehydrogenase, sequence (P11413 whole entry): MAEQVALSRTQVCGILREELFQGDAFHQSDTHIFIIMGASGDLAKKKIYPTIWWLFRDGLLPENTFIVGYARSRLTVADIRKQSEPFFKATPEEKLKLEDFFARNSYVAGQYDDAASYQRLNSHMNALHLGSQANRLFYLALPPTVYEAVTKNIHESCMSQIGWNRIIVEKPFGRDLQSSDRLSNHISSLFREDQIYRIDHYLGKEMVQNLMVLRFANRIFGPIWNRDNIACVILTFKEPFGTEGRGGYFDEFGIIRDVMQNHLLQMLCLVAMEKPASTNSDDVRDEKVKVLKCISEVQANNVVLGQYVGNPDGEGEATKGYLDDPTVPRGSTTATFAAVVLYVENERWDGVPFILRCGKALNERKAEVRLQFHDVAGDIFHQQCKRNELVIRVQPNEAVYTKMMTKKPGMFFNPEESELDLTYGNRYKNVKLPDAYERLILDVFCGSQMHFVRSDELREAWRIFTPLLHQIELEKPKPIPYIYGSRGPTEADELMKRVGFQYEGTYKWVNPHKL

Nonstructural protein 1 = Nonstructural protein 1 (Influenza A virus, UniProt Q194T2); type: functional, Influenza A virus (A/California/07/2009(H1N1))
Nonstructural protein 1, sequence (Q194T2 whole entry): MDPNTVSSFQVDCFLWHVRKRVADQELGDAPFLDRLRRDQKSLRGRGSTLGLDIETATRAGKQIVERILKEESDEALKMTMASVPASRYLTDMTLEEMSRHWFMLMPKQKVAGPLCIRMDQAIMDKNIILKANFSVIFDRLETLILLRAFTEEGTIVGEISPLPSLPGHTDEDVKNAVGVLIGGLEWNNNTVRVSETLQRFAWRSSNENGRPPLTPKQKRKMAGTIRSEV

Melanocortin receptor 4 = Melanocortin receptor 4 (Homo sapiens, UniProt P32245); test: inhibitors of MC4R cAMP signaling – cell-based, TR-FRET, biased antagonists, dose response (AID 602298); type: functional;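 also: antagonist potency against agonist-stimulated cAMP production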
Melanocortin receptor 4, sequence (P32245 whole entry): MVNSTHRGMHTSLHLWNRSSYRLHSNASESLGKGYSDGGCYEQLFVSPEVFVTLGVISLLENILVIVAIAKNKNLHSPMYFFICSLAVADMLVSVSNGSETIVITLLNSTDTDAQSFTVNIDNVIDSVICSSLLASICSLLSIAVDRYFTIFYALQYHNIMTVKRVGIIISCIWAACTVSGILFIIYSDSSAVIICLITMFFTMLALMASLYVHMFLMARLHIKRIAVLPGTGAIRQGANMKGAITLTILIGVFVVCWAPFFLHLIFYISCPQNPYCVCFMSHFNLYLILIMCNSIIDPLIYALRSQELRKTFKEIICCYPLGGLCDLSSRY

BJ = test: BJ-TERT-LT-ST fibroblast viability loss – cell-based, RAS-independent, luminescence, dose response (AID 1935); type: functional; conditions: Homo sapiens;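 also: BJ fibroblasts immortalized with TERT plus LT and ST oncogenes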
[6] = biological target: T3, Short transient receptor potential channel 4 (Mus musculus, UniProt Q9QUQ5); test: block of DAMGO-driven TRPC4 calcium entry – cell-based, HEK293 TRPC4/mu-opioid, Fluo-4 calcium, dose response (AID 434942); type: functional;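 also: potency of inhibitors blocking the TRPC4 calcium response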
T3 sequence (Q9QUQ5 whole entry): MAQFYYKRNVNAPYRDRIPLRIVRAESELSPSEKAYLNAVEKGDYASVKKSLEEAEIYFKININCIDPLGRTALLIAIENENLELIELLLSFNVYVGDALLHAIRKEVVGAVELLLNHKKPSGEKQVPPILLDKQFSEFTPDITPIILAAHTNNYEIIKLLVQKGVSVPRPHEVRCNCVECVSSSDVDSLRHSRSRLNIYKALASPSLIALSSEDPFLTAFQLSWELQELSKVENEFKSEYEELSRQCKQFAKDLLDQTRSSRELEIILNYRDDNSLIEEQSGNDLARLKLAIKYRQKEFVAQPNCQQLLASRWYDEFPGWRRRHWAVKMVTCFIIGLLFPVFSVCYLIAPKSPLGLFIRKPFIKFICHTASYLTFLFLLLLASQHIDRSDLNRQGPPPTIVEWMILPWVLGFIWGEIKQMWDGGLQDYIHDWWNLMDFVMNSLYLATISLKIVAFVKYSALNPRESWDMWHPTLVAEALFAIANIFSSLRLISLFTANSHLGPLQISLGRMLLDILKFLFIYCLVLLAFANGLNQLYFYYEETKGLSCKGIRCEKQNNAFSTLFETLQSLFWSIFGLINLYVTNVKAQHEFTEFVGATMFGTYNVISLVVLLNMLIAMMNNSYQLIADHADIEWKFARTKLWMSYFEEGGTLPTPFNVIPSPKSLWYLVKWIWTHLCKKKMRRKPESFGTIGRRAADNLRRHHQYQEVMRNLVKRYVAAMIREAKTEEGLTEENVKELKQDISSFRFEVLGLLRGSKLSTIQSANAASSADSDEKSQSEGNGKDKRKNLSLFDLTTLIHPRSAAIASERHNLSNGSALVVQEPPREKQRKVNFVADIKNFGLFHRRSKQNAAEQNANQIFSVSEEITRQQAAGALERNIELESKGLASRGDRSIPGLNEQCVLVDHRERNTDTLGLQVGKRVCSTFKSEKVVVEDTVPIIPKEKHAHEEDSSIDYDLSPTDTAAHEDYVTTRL

[7] = general cell-killing toxicity readout – plate reader, dry powder samples, cytotoxicity control for PAX8 inhibitor project, dose response (AID 743021); type: functional, cell-based
Paired box protein Pax-8 = Paired box protein Pax-8 (Homo sapiens, UniProt Q06710); test: PAX8 transcriptional activity inhibition in RMG-I – RMG-I cells, luciferase, cherry-pick, dose response (AID 687027); type: functional, cell-based;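 also: luciferase reporter driven by Pax8 target thyroperoxidase promoter measured by SteadyGlo luminescence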
Paired box protein Pax-8, sequence (Q06710 whole entry): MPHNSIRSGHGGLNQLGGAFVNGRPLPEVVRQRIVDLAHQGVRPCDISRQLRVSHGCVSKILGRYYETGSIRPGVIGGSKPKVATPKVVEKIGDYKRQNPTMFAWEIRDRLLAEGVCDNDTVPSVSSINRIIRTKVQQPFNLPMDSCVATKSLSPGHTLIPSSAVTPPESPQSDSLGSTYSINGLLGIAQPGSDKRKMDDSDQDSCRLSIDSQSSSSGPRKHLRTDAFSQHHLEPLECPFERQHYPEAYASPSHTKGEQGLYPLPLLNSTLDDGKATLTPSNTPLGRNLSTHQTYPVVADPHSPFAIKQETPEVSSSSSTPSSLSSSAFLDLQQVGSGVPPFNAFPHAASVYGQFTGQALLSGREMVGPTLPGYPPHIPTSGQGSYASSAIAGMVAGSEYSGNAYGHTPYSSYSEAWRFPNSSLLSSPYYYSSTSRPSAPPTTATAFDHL

Structure (SMILES): Oc1ccccc1/C=C/c1noc(-c2ccccc2O)n1
- IC50 [1]: 43 µM (active)
- IC50 (HEK293): > 67.5 µM (inactive)
- EC50 [2]: > 67.6 µM (inactive)
- IC50 [3]: > 99 µM (inactive)

Structure (SMILES): O=C(O)CSc1cc(NS(=O)(=O)c2ccc(Cl)cc2)c2ccccc2c1O
- IC50 [4]: > 66 µM (inactive)
- CC50 (Vero): 33.2 µM (active)
- IC50 [5]: 29.9 µM (inactive)

Structure (SMILES): Cc1cccc(N=Nc2ccc(N(C)C)cc2)c1
- IC50 (Nonstructural protein 1): 31.6 µM (active)

Structure (SMILES): Cc1nn(-c2ccccc2)c(Cl)c1CN(C(=O)CCl)c1ccc(Cl)cc1
- IC50 (Melanocortin receptor 4): > 64.6 µM (inactive)
- EC50 (BJ): 3.36 µM (inconclusive)
- EC50 [6]: 0.237 µM (active)
- AC50 [7]: 6.9 µM (active)
- AC50 (Paired box protein Pax-8): 3.19 µM (active)
